Test results: patent US20080138834A1, “Cellular antagonists of GPCR physiology” (Institute Pasteur Korea, priority 2006, published 2008)
“Also recorded” adds a separate entry of the source. Where two headings read alike, the source gives them in different places.

Experiments:
HeLa cells = assay: Housekeeping endocytosis assay (BODIPY-FL dextran internalization); format: cell-based
rat thoracic aorta = assay: Ex-vivo rat thoracic aorta constriction-relaxation model; conditions: 10 μM compound 30 min, then 40 nM endothelin; normalized to noradrenalin contraction
Protocol: As previously described, male rats (Sprague-Dawley) weighing 300 to 400 g were anesthetized with sodium pentobarbital (50 mg/kg i.p.), and thoracic aorta was removed, cleaned of fat and connective tissue placed in Krebs bicarbonate solution (118 mM NaCl; 4.7 mM KCl; 25 mM NaHCO3; 2.5 mM CaCl2; 1.2 mM KH2PO4; 1.2 mM MgSO4; 11 mM glucose) bubbled with 95% O2 and 5% CO2^39,40. The whole aorta was cut along a close spiral to produce a strip of 5 to 6 cm long. The strip was mounted on a Grass force displacement transducer at a tension of 2 grams and placed in a 25 ml chamber maintained at 34° C. Following mounting of aorta strip on transducer, noradrenalin was added to a final concentration of 5 μM and increase of tension-constriction was recorded for 20 min. Subsequently, the noradrenalin was washed with 16 chamber volumes (400 ml) until tension returned to 2 grams. […] Tension was recorded throughout the experiment. […]
To correlate the effect of kinase inhibitors that perturb ETAR intracellular pathway and cAMP production to a physiological relevance we have examined compound effect(s) on the ex-vivo rat thoracic aorta constriction-relaxation model (^39, 40). […] Contractile responses were assessed after aortal strips were treated with 10 μM Gö6976, 10 μM Erbstatin A or 10 μM H-89 for 30 minutes followed by treatment with Endothelin. […]

[1] = tested on: ETAR: GFP expressing cells; assay: Single cell visual screening: red fluorescent dextran internalization in ETAR:GFP expressing cells; format: cell-based; conditions: 10 μM compound, 10 min red fluorescent dextran
Protocol: Single cell differential screening. […] (b) 10 μM Erbstatin A. (c) 10 μM H-89 (d) DMSO (e) 40 nM endothelin-1 alone. Confocal images are from a 1 μm Z section. […] Scale bar 5 μm.
The effect of the 3 kinase inhibitors affecting ETAR on receptor activation and housekeeping endocytosis were simultaneously imaged in ETAR: GFP expressing cells by internalization of red fluorescent dextran (FIG. 3). […] Thus, inhibition of protein kinase A and C second messenger activated kinases potently altered ETAR GPCR internalization but left housekeeping endocytosis unaffected.

[2] = tested on: M1 muscarinic acetylcholine receptor (M1AR); assay: Agonist-induced M1AR endocytosis in polarized MDCK cells; format: cell-based; conditions: 10 μM compound, vs untreated agonist stimulated control
Protocol: Sensitivity of GPCR internalization to kinase inhibitors acting on ETAR endocytosis. (a) Fully polarized MDCK cells expressing the M1AR were treated with 100 nM carbachol, DMSO, or compounds then fixed and stained with antibodies against the M1AR epitope tag (green) or the GP130 apical plasma marker (red). Cells were pretreated with compounds: 10 μM RO 31 8220, 10 μM Erbstatin A, 10 μM H-89, with 100 nM agonist, agonist alone or DMSO. Scale bar: 20 μm. (b) HEK293T cells expressing a human kappa Opioid receptor fusion to the green fluorescent protein were treated with 10 μM Gö 6976, 10 μM Erbstatin A, 10 μM H-89, 10 μM KT-5720 with 300 nM agonist, agonist alone or DMSO. Scale bar 20 μm. (c) Quantification of kappa Opioid receptor internalization (endosomes/cell) after compound treatment and agonist treatment.
If the involvement of second messenger kinases in agonist induced endocytosis of the ETAR was a generic feature of Gq coupled receptor activation, it may be expected that the kinase inhibitors affecting ETAR endocytosis may have effects on related receptors or related receptors in other cell lines. The kinase inhibitors that disrupted agonist induced ETAR endocytosis were assayed on agonist-induced endocytosis of the Gq/11 coupled M1 muscarinic acetylcholine receptor (M1AR). […]

[3] = tested on: human kappa Opioid receptor; format: cell-based
cAMP = cAMP production after ET-1 stimulation, indirect ELISA; format: cell-based; conditions: for effect on intra-cellular cAMP after ET-1 stimulation: 10 μM compound, 40 nM ET-1
Protocol: cAMP production requires sequential G-protein activation.
All fine chemicals were purchased from Sigma-Aldrich. Fluorophores and their reactive forms were purchased from Molecular Probes (Eugene, USA). DRAQ5 was from BioStatus (Shepshed, UK). 40 kDa BODIPY-F1-dextran was synthesized from amino dextran using standard protocols. […] Kinase and phosphatase inhibitors were purchased as 95-99% pure 10 mM stock solutions in dimethylsulfoxide or water (Biomol Hamburg, Germany). Stock solutions and formatted assay plates were stored at −20° C. cAMP was measured by indirect ELISA (R & D systems, MN USA) following the manufacturers protocol for cAMP acetylation, and a cAMP standard.
GPCRs can couple to multiple G-proteins and switching between G-proteins is generally mediated by protein phosphorylation^36-38. We assessed the importance of Gq coupling and PKC activity in the generation of intra-cellular cAMP through Gs following agonist stimulation.

[4] = 10 μM compound, fluorescent dextran uptake

CC(C)(C)c1cc(/C=C(\C#N)C(N)=S)cc(C(C)(C)C)c1O [AG-879]
effect on housekeeping endocytosis (integrated intensity per cell) (HeLa cells; 10 μM compound, data not shown): reduced | effect on housekeeping endocytosis (number of endosomes) (HeLa cells; [4]): reduced the number of endosomes

CN(C)CCCn1cc(C2=C(c3c[nH]c4ccccc34)C(=O)NC2=O)c2ccccc21 [GF 109203X]
effect on housekeeping endocytosis (integrated intensity per cell) (HeLa cells): reduced | effect on housekeeping endocytosis (number of endosomes) (HeLa cells): reduced the number of endosomes; also recorded: blocked

Cn1c2ccccc2c2c3c(c4c5ccccc5n(CCC#N)c4c21)CNC3=O [Gö 6976]
endothelin dependent aortal strip contraction vs endothelin alone (rat thoracic aorta): increased contraction

CC1CNCCN1S(=O)(=O)c1cccc2cnccc12 (stereo not shown) [H7]
effect on housekeeping endocytosis (number of endosomes) (HeLa cells; [4]): no significant effect

O=S(=O)(NCCNC/C=C/c1ccc(Br)cc1)c1cccc2cnccc12 [H-89]
effect on housekeeping endocytosis (number of endosomes) (HeLa cells; [4]): None of these compounds had a measurable effect | housekeeping endocytosis, single cell imaging [1]: unaltered | agonist-induced M1AR endocytosis [2]: unaffected | effect on kOPr internalization [3]: moderate | effect on intra-cellular cAMP after ET-1 stimulation (cAMP): markedly increased cAMP | increase of cellular cAMP (cAMP; PKA inhibition with H-89, endothelin stimulated): two-fold | endothelin dependent aortal strip contraction vs endothelin alone (rat thoracic aorta): significantly lower constriction

CCCCCCOC(=O)[C@]1(O)C[C@@H]2O[C@@]1(C)n1c3ccccc3c3c4c(c5c6ccccc6n2c5c31)C(=O)NC4 [KT5720]
effect on kOPr internalization [3]: pronounced stimulation of receptor uptake

CCCCCCCCCCCCCCCC(=O)OC(CC(=O)O)C[N+](C)(C)C.[Cl-] (stereo not drawn) [Palmitoyl DL carnitine chloride]
effect on housekeeping endocytosis (number of endosomes) (HeLa cells; [4]): no significant effect

Cn1cc(C2=C(c3cn(CCCSC(=N)N)c4ccccc34)C(=O)NC2=O)c2ccccc21 [Ro 31-8220]
effect on housekeeping endocytosis (number of endosomes) (HeLa cells; [4]): None of these compounds had a measurable effect | effect on housekeeping endocytosis (number of endosomes) (HeLa cells; 10 μM compound, fluorescent dextran uptake, listed as Ro 31 8220): no significant effect | housekeeping endocytosis, single cell imaging [1]: unaffected | agonist-induced M1AR endocytosis [2]: unaffected | effect on intra-cellular cAMP after ET-1 stimulation (cAMP): blocked cAMP production

CC[C@H](C)[C@H](NC(=O)[C@H](CC(=O)O)NC(=O)[C@H](CC(C)C)NC(=O)[C@H](Cc1c[nH]cn1)NC(=O)[C@@H]1CSSC[C@H](N)C(=O)N[C@@H](CO)C(=O)N[C@H]2CSSC[C@H](NC(=O)[C@H](CCC(=O)O)NC(=O)[C@H](CCCCN)NC(=O)[C@H](CC(=O)O)NC(=O)[C@H](CCSC)NC(=O)[C@H](CC(C)C)NC(=O)[C@H](CO)NC(=O)[C@H](CO)NC2=O)C(=O)N[C@@H](C(C)C)C(=O)N[C@@H](Cc2ccc(O)cc2)C(=O)N[C@@H](Cc2ccccc2)C(=O)N1)C(=O)N[C@H](C(=O)N[C@@H](Cc1c[nH]c2ccccc12)C(=O)O)[C@@H](C)CC [endothelin-1]
intra-cellular cAMP after stimulation with ET-1 alone (cAMP; 40 nM ET-1, after 10 min): robust increase in intra-cellular cAMP | time of peak in cAMP production following stimulation (cAMP; endothelin stimulation): 20 min

Cc1cc(O)c2c(=O)c3c(O)cc(O)c4c5c(O)cc(O)c6c(=O)c7c(O)cc(C)c8c1c2c(c34)c(c78)c65 [hypericine]
housekeeping endocytosis compared to control (HeLa cells): 0.2 fold

CC(=O)c1c(O)c(C)c(O)c(Cc2c(O)c3c(c(C(=O)/C=C/c4ccccc4)c2O)OC(C)(C)C=C3)c1O [rottlerin]
effect on housekeeping endocytosis (number of endosomes) (HeLa cells): no effect

CN[C@@H]1C[C@H]2O[C@@](C)([C@@H]1OC)n1c3ccccc3c3c4c(c5c6ccccc6n2c5c31)C(=O)NC4 [staurosporine]
effect on housekeeping endocytosis (integrated intensity per cell) (HeLa cells; 10 μM compound, data not shown): reduced | effect on housekeeping endocytosis (number of endosomes) (HeLa cells; [4]): reduced the number of endosomes; also recorded: inhibited

CC(C)(C)c1cc(C=C(C#N)C#N)cc(C(C)(C)C)c1O [tyrphostin 9]
effect on housekeeping endocytosis (integrated intensity per cell) (HeLa cells; 10 μM compound, data not shown): reduced | effect on housekeeping endocytosis (number of endosomes) (HeLa cells; [4]): reduced the number of endosomes
